From US10626094B2 (La Jolla Institute of Allergy & Immunology, priority 2014, dated 2020)
Like-named read-outs stand apart in the source and are kept apart here.

Legend:
LMPTP [1] = molecular target: T1, LMPTP (Homo sapiens (Human), UniProt P24666); test: LMPTP enzyme inhibition assay with pNPP as substrate; assay type: biochemical; conditions: n = 2; AID 743308; read-out: LMPTP Orthogonal assay IC50
[2] = rodent pharmacokinetics in male C57BL/6 mice (IV, PO, IP); assay type: in vivo, mouse
Protocol: The inventors also examined ML400 (also described herein as MLS-0472870 or Compound D1) for its rodent pharmacokinetics. The probe Compound D1 was profiled in Male C57BL/6 Mice, with n=3 for each group studied (IV, IP and PO arms). The formulation used was 1.00 mg/mL in DMSO:Tween80:Water=5:5:90, which gave a clear solution. […] Enterohepatic circulation was also observed for this compound. This compound has acceptable parameters for future in vivo studies (see Table 4 and FIG. 13).

[3] = molecular target: LMPTP-A (Low Molecular Weight Protein Tyrosine Phosphatase-A) enzyme (Homo sapiens (Human), UniProt P24666); test: LMPTP primary screening / LMPTP (OMFP) enzyme inhibition assay, fluorescence intensity; assay type: biochemical
Chain of LMPTP-A (Low Molecular Weight Protein Tyrosine Phosphatase-A) enzyme (P24666 whole entry): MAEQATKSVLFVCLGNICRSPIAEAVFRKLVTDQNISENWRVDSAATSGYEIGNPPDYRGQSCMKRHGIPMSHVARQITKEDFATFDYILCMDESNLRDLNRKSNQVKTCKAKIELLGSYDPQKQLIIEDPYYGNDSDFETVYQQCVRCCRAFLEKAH
Procedure, shortened: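 Single-concentration screen, test compounds 20 μM final, […]. Enzyme (0.625 nM) and OMFP (400 μM) react 50 min at room temp, dark, in Bis-Tris buffer pH 6.0 containing DTT 1 mM and Triton X-100 0.01%. Read-out: fluorescence intensity.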

[4] = molecular target: VHR-1 (VH1-related phosphatase, VHR) (Homo sapiens (Human), UniProt P51452); test: VHR-1 phosphatase selectivity dose response assay; assay type: biochemical
Chain of VHR-1 (VH1-related phosphatase, VHR) (P51452 whole entry, canonical isoform): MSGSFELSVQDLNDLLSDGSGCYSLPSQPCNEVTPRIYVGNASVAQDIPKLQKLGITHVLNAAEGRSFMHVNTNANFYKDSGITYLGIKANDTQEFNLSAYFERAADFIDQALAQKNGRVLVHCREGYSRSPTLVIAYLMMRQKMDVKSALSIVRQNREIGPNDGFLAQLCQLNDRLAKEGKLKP
From the text: Disclosed herein is a collection of small-molecule inhibitors of the low molecular weight protein tyrosine phosphatase (LMPTP). The assays utilized in the primary and secondary screening were designed to identify allosteric inhibitors of LMPTP. […] The structure of the compounds was further optimized to generate a series of inhibitors of LMPTP-A isoform, with high selectivity over the LMPTP-B isoform, LYP and VHR, and with cellular activity. In an aspect is provided a compound having the formula: […]
LYP-1 and VHR-1 dose response assays to assess selectivity of Compound D1 against these non-homologous phosphatases.

[5] = plasma stability, human plasma; assay type: in vitro ADME
From the text: (§1) Plasma stability is a measure of the stability of small molecules and peptides in plasma and is an important parameter, which can strongly influence the in vivo efficacy of a test compound. Drug candidates are exposed to enzymatic processes (proteinases. esterases) in plasma, and they can undergo intramolecular rearrangement or bind irreversibly (covalently) to proteins.

[6] = aqueous solubility (buffer pH 5.0-7.4, PBS); assay type: physicochemical; conditions: for solubility: Pion's buffer
[7] = hepatic microsomal stability, mouse liver microsomes; assay type: in vitro ADME
From the text: In the course of this investigation many compounds with similar potencies in the LMPTP (OMFP) assay were found. In order to determine which compound would be the best candidate for in vivo studies, an abbreviated ADME panel was ran on these compounds, a tabulation of the most interesting data on this set of compounds is illustrated in Table 3 below. From the hepatic microsome stability data the candidate selected for in vivo studies was Compound D1.
The microsomal stability assay is commonly used to rank compounds according to their metabolic stability. This assay addresses the pharmacologic question of how long the parent compound will remain circulating in plasma within the body.

[8] = system: obese C57BL/6 mice on HFD; test: IPGTT glucose tolerance in high-fat diet obese mice; assay type: in vivo, mouse; conditions: 30 mg/kg IP daily, 4 weeks, 2 g glucose/kg
Protocol: Male C57BL/6 mice were maintained on HFD containing 60 kcal % fat for 3 months, followed by daily IP administration of 30 mg/kg Compound D1 or vehicle. After 4 weeks, IPGTT were performed using 2 g glucose/kg body weight. Mean±SEM is shown. *, p<0.05, Two-way ANOVA.

[9] = plasma stability, mouse plasma; assay type: in vitro ADME
From the text: as §1

LMPTP [10] = molecular target: T1, LMPTP; test: mechanism of action: LMPTP activity on OMFP at increasing inhibitor concentrations (Michaelis-Menten); assay type: biochemical
Protocol: Activity of 20 nM LMPTP on OMFP substrate in the presence of increasing concentrations of ML400. Reactions were conducted at 37° C. in 50 mM Bis-Tris, pH 6.0 with 1 mM DTT and 0.01% Triton X-100. Mean±SD is shown. Lines show fitting of data to the Michaelis-Menten equation. Note decrease in both Vmax and KM with increasing inhibitor concentration.

[11] = male, C57BL/6, mouse, in vivo, iv, […]
[12] = mouse, in vivo, male C57BL/6 mice, IP, 9.69 mg/kg
[13] = mouse, in vivo, male C57BL/6 mice, PO, 29.6 mg/kg

T1 sequence (P24666 whole entry): as the sequence (P24666 whole entry) above

COc1ccc(-c2cc(NCCCN3CCCCC3)c3ccccc3n2)cc1 [Compound D1, 2-(4-methoxyphenyl)-N-(3-(piperidin-1-yl)propyl)quinolin-4-amine]
IC50 (LMPTP [1]): 3.52 ± 0.33 µM | enterohepatic circulation ([2]; male C57BL/6 mice): observed | Cl (mL/min/kg) ([2]; male C57BL/6 mice, IV, […]): Low clearance | Vdss (L/kg) ([2]; male C57BL/6 mice, IV, […]): large volume of distribution | clearance [2, 11]: 25.8 mL/min/kg | half-life [2, 11]: 39.6 h | Vd ([2]; male, C57BL/6, mouse, in vivo, iv, […], read-out: Vdss): 83.1 L/kg | AUC(0-inf) [2, 12]: 4520 ng·h/mL | Cmax [2, 12]: 365 ng/mL | Tmax [2, 12]: 0.33 h | half-life [2, 12]: 32.5 h | AUC(0-inf) [2, 13]: 6380 ng·h/mL | Cmax [2, 13]: 3210 ng/mL | Tmax [2, 13]: 3.33 h | half-life [2, 13]: 29.2 h | IC50 ([3]; LMPTP-A, OMFP substrate, method of Example 2, read-out: IC50): 0.801 to 5 µM | IC50 ([3]; Table 2 quinoline series, S sample (synthesized de novo), read-out: LMPTP (OMFP) (IC50)): 1.68 µM | IC50 ([3]; Table 5, n = 4, AID686962, AID743307, read-out: LMPTP IC50): 1.68 ± 0.15 µM | Fold-Selective ([4]; LMPTP over VHR-1): >60-fold | IC50 ([4]; n = 2, AID743310, read-out: Anti-target VHR-1 IC50): > 80 µM | Plasma Stability % Remaining @ 3 hrs ([5]; Human plasma, 3 hrs): 89.03% | plasma stability ([5]; human plasma): good stability | solubility in PBS ([6]; PBS, versus aqueous buffer): comparable | solubility ([6]; aqueous buffer, pH 5.0): > 112 µg/mL | solubility ([6]; pH 6.2, aqueous buffer): > 112 µg/mL | solubility ([6]; pH 7.4, aqueous buffer): > 112 µg/mL | concentration achieved in aqueous buffer ([6]; pH range of 5.0-7.4): 18-20 ×IC50 | Hepatic Microsome Stability % Remaining @ 1 hr ([7]; Mouse microsomes, 1 hr): 48.75% | microsomal stability ([7]; mouse liver microsomes after 1 hour): moderate stability | glucose tolerance (IPGTT) [8]: Improves Glucose Tolerance | Plasma Stability % Remaining @ 3 hrs ([9]; Mouse plasma, 3 hrs): 68.97% | plasma stability ([9]; mouse plasma): good stability | mechanism of action of LMPTP inhibition (LMPTP [10]; 20 nM LMPTP, OMFP substrate, 37° C., pH 6.0): uncompetitive | effect on Vmax and KM (LMPTP [10]; increasing inhibitor concentration): lowering both Vmax and KM
